According to patent US9376665B2, “Method for producing intestinal cells” (National University Corporation Kumamoto University, priority 2010, dated 2016):
“Also recorded” adds a separate entry of the source.

Assays:
human ES cells [1] = assay: Test Example 4: effect of FGF2 concentration on human ES cells, proportion of Cdx2-positive cells by flow cytometry; assay type: cell-based
Procedure: Since there has been a previous report that a high concentration of FGF2 is important for differentiation of human ES cells into Cdx2-positive cells, it was examined whether or not the same results can be obtained. The final concentration of 250 ng/mL of FGF2 was used. In accordance with the method in Test Example 3, differentiation of human ES cells was carried out on gelatin-coated dishes until they differentiated into endoderm, and then (on the 7th day of cultivation), 0, 50, and 250 ng/mL of FGF2, respectively, were added thereto besides BIO (5 μM) and DAPT (10 μM), and the cells were further cultured until the 9th day or 20th day, and the proportion of Cdx2-positive cells was evaluated by flow cytometry. The flow cytometry (FACS) analysis was carried out using BD Cytofix/Cytoperm™ Kit (BD Biosciences) in accordance with a manual provided by the manufacturer.

[2] = system: definitive endoderm cells; assay: Effects of FGFs on intestinal differentiation of definitive endoderm cells (RT-PCR, Cdx2 immunohistochemistry); assay type: cell-based, mouse
Procedure: The ES cells were culture on M15 cells added with 20 ng/mL of activin and 50 ng/mL of bFGF in DMEM medium containing 10% fetal bovine sera and […] of glucose for 5 days, and were analyzed using flow cytometry for definitive endoderm. For intestinal differentiation, the ES cells were further cultured on M15 or MEF cells, in the presence of BIO and DAPT, or without BIO and DAPT but with FGFs, in media with 10% KSR at a glucose concentration of 2000 mg/mL.
256 ng/mL of FGF2 (human bFGF) (Peprotech); and
50 ng/mL of FGF4 (Peprotech), FGF5 (Sigma), FGF7 (R&D Systems), FGF8 (Cosmo Bio), FGF9 (Peprotech), FGF10 (R&D Systems) and FGF18 (Sigma), respectively.
RNA was extracted from the ES cells using TRI Reagent (Sigma) or RNeasy micro-kit (Qiagen), and then, was treated with DNase (Sigma). Three micrograms of RNA were reverse-transcribed using a MMLV reverse transcriptase (Toyobo) and oligo dT primers (Toyobo). The PCR conditions for each cycle include initial denaturation at 96° C. for one minute, and the second and subsequent cycles of denaturation at 96° C. for 30 seconds, annealing at 60° C. for 2 seconds and extension at 72° C. for 20 seconds, and the final cycle of extension at 72° C. for 7 minutes. RT-PCR products were separated by 5% non-denaturing polyacrylamide gel electrophoresis, stained with SYBR Green I (Molecular Probes), and visualized using Gel Logic 200 Imaging System (Kodak).

human ES cells [3] = assay: Test Example 3: addition of various activators in human ES cells, proportion of Cdx2-positive cells by flow cytometry; assay type: cell-based; details: 20th day of cultivation; FGF2 50 ng/mL besides BIO (5 ηM) and DAPT (10 μM)
Procedure: With respect to human ES cells, it was examined whether or not addition of FGF2, BMP4 and/or SAG improves an efficiency of differentiation into Cdx2-positive cells in a feeder-free system.
First, for the experiment of inducing the differentiation, human ES cells were plated on gelatin-coated dishes at 69,000 cells/cm^2. The ES cells were cultured for seven days in RPMI 1640 medium (Invitrogen) supplemented with NEAA, L-Gln, PS, β-ME, 10 μg/mL of Insulin (Sigma-Aldrich), 100 ng/mL of recombinant human activin A (R&D Systems, Minneapolis, Minn.), and B27 supplement (Invitrogen). Then, the culture medium was replaced with 10% KSR supplemented with 2,000 mg/mL of glucose, BIO ([…]), DAPT (10 μM) and activators and growth factors at the concentrations as described in Test Example 2. After that, cell culturing was further continued, and the cells were separated on the 9th day and the 20th day of cultivation in the same manner as Example 1, and then, the proportion of Cdx2-positive cells was evaluated by use of flow cytometry. The flow cytometry (FACS) analysis was carried out using BD Cytofix/Cytoperm™ Kit (BD Biosciences) in accordance with a manual provided by the manufacturer.

mouse ES cells = assay: Test Example 2: addition of various activators, proportion of Cdx2-positive cells by flow cytometry, feeder-free; assay type: cell-based; details: for Cdx2-positive cells: BIO (5 μM) and DAPT (10 μM) with or without FGF2 50 ng/mL
Procedure: Therefore, next, an experiment in which the FGF signaling, the BMP signaling and the Hh signaling were activated was carried out. In view of micro-array data showing that MEF cells express FGF2 and BMP4, 50 ng/mL of FGF2 (PEPROTECH) and 25 ng/mL of BMP4 (R&D Systems) were used to activate the FGF signaling and the BMP signaling. Furthermore, as to activation of the Hh signaling, 300 nM of SAG (MERCK) (smoothend agonist; smo) was used.
For the experiment of inducing the differentiation, the induction of differentiation was carried out in a feeder-free system as described below. First, mouse ES cells were plated on a gelatin-coated dish at 6,900 cells/cm^2. The ES cells were cultured for 7 days in DMEM medium (Dulbecco's Modified Eagle Medium) (Invitrogen, Glasgow, UK) containing 4,500 mg/L of glucose, supplemented with NEAA, L-Gln, PS, β-ME, 10 μg/mL of Insulin (Sigma-Aldrich), […] of Transferin (Sigma-Aldrich), 6.7 pg/mL of Selenium (Sigma-Aldrich), 0.25% AlbuMax (Invitrogen), and 10 ng/mL of recombinant human activin A (R&D Systems, Minneapolis, Minn.), and then, the culture medium was replaced with 10% KSR containing 2,000 mg/mL of glucose, BIO (5 μM) and DAPT (10 μM) and further supplemented with the activator or growth factor. After that, cell culturing was further continued, the cells were separated on the 10th day and the 15th day of cultivation as described in Example 1, and then, the proportion of Cdx2-positive cells was evaluated by use of flow cytometry. The flow cytometry (FACS) analysis was carried out using BD Cytofix/Cytoperm™ Kit (BD Biosciences) in accordance with a manual provided by the manufacturer.

[4] = system: khES-3 (human ES cell line); assay: Intestinal differentiation of human ES cells on M15 cells; assay type: cell-based; design: dose or concentration left out as unconfirmed; details: activin for 10 days
Description: Human ES cells (KhES-3) (PMID: 16707099) was those provided by Dr. N. Nakatsuji and Dr. H. Suemori (Kyoto University, Kyoto, Japan), and were used in accordance with the hES cell guidelines of the Japanese government. The undifferentiated hES cells were maintained on a feeder layer of MEF in Knockout DMEM/F12 (Invitrogen) supplemented with 20% KSR, L-Gln, NEAA and β-ME under 3% CO2. To passage the hES cells, hES cell colonies were detached from the feeder layer by treating them with 0.25% trypsin and 0.1 mg/mL of collagenase IV in PBS containing 20% KSR and 1 mM of CaCl2 at 37° C. for 5 minutes, followed by adding a culture medium thereto and gently pipetting them several times to desegregate ES cell clumps into smaller pieces (5-20 cells).
For differentiation induction, the human ES cells were pre-treated with Y27632 (Wako) for 24 hours, and then, they were plated at 50,000 cells per well in 24-well plates that had been pre-coated with M15 cells. The ES cells were dissociated with 0.25% trypsin-EDTA (Invitrogen), and cultured in Y27632 containing an ES maintenance medium for one day. One day after plating, the cells were washed by PBS, and the medium was changed to a differentiation medium. […]

Molecule | proportion of Cdx2-positive cells (human ES cells [1]; 9th day of cultivation, 250 ng/mL of FGF2 besides BIO (5 μM) and DAPT (10 μM)) | proportion of Cdx2 positive cells (human ES cells [1]; 20th day of cultivation, 0, 50 and 250 ng/mL of FGF2 besides BIO (5 μM) and DAPT (10 μM)) | induction of Cdx2-expressing intestinal cells ([2]; FGFs added from Day 4 of the differentiation, on MEF cells, immunohistochemistry on day 12) | molecular markers for enterocytes (Ifabp, Isx), goblet cells (Tff3), Paneth cells (Lyz1) and enteroendocrine cells (Sct, Syp, Sst, Gast) ([2]; RT-PCR, day 15, BIO and DAPT, or FGF2 (256 ng/mL) only without BIO and DAPT) | proportion of Cdx2-positive cells (human ES cells [3]) | Cdx2-positive cells (mouse ES cells; 10th day of cultivation) | number of Cdx2-positive cells versus control (only BIO and DAPT) (mouse ES cells; 10th day of cultivation, FGF2 50 ng/mL or SAG 300 nM added besides BIO and DAPT) | Cdx2-positive cells (mouse ES cells; 15th day of cultivation) | efficiency of differentiation versus control (only BIO and DAPT) (mouse ES cells; 15th day of cultivation, FGF2 added besides BIO and DAPT) | differentiation of khES-3 into definitive endoderm [4]
FGF2: basic fibroblast growth factor, FGF2 (human bFGF) (Peprotech) | decreased | decreased depending on the concentration of FGF2 | induced Cdx2-expressing intestinal cells | induced at much lower levels; also recorded: small in extent | decreased | 40% | significant increase | about 60% | more efficiently differentiate | –
activin: recombinant human activin-A (R&D Systems) (protein, UniProt P08476 311-426, looked up, Inhibin beta A chain) Inhibin beta A chain: GLECDGKVNICCKKQFFVSFKDIGWNDWIIAPSGYHANYCEGECPSHIAGTSGSSLSFHSTVINHYRMRGHSPFANLKSCCVPTKLRPMSMLYYDDGQNIIKKDIQNMIVEECGCS | – | – | – | – | – | – | – | – | – | differentiated into definitive endoderm
